Test results: patent US11584744B2 (UNIVERSITY OF WASHINGTON, priority 2017, dated 2023)
“And” between values parts separate entries of the source, which are not always exact repeats. Identical values can stand only once. Like-named read-outs stand apart in the source and are kept apart here.

Key:
T. brucei = T. brucei growth inhibition; assay type: cell-based, Trypanosoma brucei; settings: Trypanosoma brucei; read-out: (D) T. brucei EC50
MetRS (C. parvum) = MetRS (C. parvum) (Cryptosporidium parvum, UniProt Q5CVN0); experiment: MetRS (C. parvum) enzyme inhibition; assay type: biochemical; settings: read-out: (C) MetRS (C. parvum) IC50
T. cruzi = T. cruzi growth inhibition; assay type: cell-based, Trypanosoma cruzi; settings: read-out: (E) T. cruzi EC50
MetRS (T. brucei) = target: T1, MetRS (T. brucei) (Trypanosoma brucei brucei, UniProt Q38C91); experiment: MetRS (T. brucei) enzyme inhibition; assay type: biochemical
T1 sequence (Q38C91 1-773): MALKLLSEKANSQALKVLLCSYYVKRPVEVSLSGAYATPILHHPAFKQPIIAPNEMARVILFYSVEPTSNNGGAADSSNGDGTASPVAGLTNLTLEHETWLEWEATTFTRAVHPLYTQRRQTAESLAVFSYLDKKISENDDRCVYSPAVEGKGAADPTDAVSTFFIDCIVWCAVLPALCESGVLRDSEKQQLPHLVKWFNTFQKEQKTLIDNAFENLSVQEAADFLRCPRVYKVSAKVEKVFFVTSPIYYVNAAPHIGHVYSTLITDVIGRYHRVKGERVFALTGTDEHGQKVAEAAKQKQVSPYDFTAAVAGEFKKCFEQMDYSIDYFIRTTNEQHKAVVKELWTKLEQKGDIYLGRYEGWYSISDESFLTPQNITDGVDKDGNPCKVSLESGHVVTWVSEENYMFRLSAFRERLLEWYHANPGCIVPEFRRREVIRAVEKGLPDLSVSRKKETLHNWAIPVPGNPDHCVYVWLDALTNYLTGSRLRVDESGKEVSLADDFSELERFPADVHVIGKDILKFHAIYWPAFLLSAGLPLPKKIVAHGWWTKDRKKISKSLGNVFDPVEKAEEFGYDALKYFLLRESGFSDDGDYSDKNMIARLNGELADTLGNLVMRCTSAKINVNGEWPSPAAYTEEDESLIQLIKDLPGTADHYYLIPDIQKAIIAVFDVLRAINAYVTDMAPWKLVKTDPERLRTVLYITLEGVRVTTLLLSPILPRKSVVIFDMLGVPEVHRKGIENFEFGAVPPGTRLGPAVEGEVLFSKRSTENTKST

Chain of MetRS (C. parvum) (Q5CVN0 entry or part of it): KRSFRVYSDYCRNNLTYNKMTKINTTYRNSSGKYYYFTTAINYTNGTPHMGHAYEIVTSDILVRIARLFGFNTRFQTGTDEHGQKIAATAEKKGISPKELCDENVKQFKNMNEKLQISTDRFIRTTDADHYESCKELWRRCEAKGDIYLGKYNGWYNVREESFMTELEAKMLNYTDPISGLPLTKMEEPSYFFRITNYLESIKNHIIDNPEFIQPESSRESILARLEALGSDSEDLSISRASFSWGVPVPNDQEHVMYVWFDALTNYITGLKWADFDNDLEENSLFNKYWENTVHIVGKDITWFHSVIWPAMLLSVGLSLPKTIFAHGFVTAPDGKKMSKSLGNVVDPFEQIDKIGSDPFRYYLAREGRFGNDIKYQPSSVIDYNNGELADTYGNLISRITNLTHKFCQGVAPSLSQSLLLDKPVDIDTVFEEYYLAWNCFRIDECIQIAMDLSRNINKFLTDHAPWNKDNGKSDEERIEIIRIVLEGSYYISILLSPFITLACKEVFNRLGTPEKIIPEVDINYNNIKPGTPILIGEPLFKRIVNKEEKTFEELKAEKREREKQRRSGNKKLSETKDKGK

Row | EC50 (T. brucei) [nM] | IC50 (MetRS (C. parvum)) [nM] | EC50 (T. cruzi; Trypanosoma cruzi) [nM] | IC50 (MetRS (T. brucei)) | EC50 (T. cruzi) [nM] | SMILES
1 | 242 | 195 | 3720 | < 40 nM |  | Fc1ccc2nc(Cn3cc(Cc4ccc(Cl)cc4Cl)[nH]c3=S)[nH]c2n1 [Compound 2056, 5-(2,4-dichlorobenzyl)-3-((5-fluoro-3H-imidazo[4,5-b]pyridin-2-yl)methyl)-1H-imidazole-2(3H)-thione]
2 | 40.2 | < 40 | 1000 | < 40 nM |  | CCn1c(Cc2ccc(Cl)cc2Cl)cn(Cc2nc3ccccc3[nH]2)c1=O [Compound 2068, 1-[(1H-1,3-benzodiazol-2-yl)methyl]-4-[(2,4-dichlorophenyl)methyl]-3-ethyl-2,3-dihydro-1H-imidazol-2-one]
3 | 113 | 175 | 2930 | 63 nM |  | CCn1c(Cc2ccc(Cl)cc2Cl)cn(Cc2nc3ccc(F)nc3[nH]2)c1=S [Compound 2103, 4-[(2,4-dichlorophenyl)methyl]-3-ethyl-1-({5-fluoro-1H-imidazo[4,5-b]pyridin-2-yl}methyl)-2,3-dihydro-1H-imidazole-2-thione]
4 | 73.4 | 40.3 | 1480 | < 40 nM |  | CSc1nc(Cc2ccc(Cl)cc2Cl)cn1Cc1nc2ccc(F)nc2[nH]1 [Compound 2104, 4-[(2,4-dichlorophenyl)methyl]-1-({5-fluoro-1H-imidazo[4,5-b]pyridin-2-yl}methyl)-2-(methylsulfanyl)-1H-imidazole]
5 | 53.5 | < 40 | 329 | < 40 nM |  | CSc1nc(Cc2ccc(Cl)cc2Cl)cn1Cc1nc2nc(Cl)ccc2[nH]1 [Compound 2109, 1-({5-chloro-1H-imidazo[4,5-b]pyridin-2-yl}methyl)-4-[(2,4-dichlorophenyl)methyl]-2-(methylsulfanyl)-1H-imidazole]
6 | 1050 | 252 |  | < 40 nM |  | COc1ccc(-c2cccc3c2CN(Cc2nc4nc(Cl)ccc4[nH]2)CC3)c(Cl)c1 [Compound 2161, 2-({5-chloro-1H-imidazo[4,5-b]pyridin-2-yl}methyl)-8-(2-chloro-4-methoxyphenyl)-1,2,3,4-tetrahydroisoquinoline]
7 | 175 | 90.4 |  | < 40 nM |  | COc1ccc(-c2cccc3nc(Cc4nc5nc(Cl)ccc5[nH]4)oc23)c(Cl)c1 [Compound 2162, 2-({5-chloro-1H-imidazo[4,5-b]pyridin-2-yl}methyl)-7-(2-chloro-4-methoxyphenyl)-1,3-benzoxazole]
8 | 1910 | > 1000 |  | 143 nM |  | CCOc1ccc(-c2cccc3nc(Cc4nc5nc(Cl)ccc5[nH]4)cn23)c(Cl)c1 [Compound 2164, 2-({5-chloro-1H-imidazo[4,5-b]pyridin-2-yl}methyl)-5-(2-chloro-4-ethoxyphenyl)imidazo[1,2-a]pyridine]
9 | > 200 | 326 |  | < 40 nM |  | Cc1ccc(-c2cccc3nc(Cc4nc5nc(Cl)ccc5[nH]4)cn23)c(Cl)c1 [Compound 2165, 2-({5-chloro-1H-imidazo[4,5-b]pyridin-2-yl}methyl)-5-(2-chloro-4-methylphenyl)imidazo[1,2-a]pyridine]
10 | > 2000 | 505 |  | 203 nM |  | COc1ccc(-c2cccc3c2CN(Cc2nc4nc(F)ccc4[nH]2)CC3)c(Cl)c1 [Compound 2167, 8-(2-chloro-4-methoxyphenyl)-2-((5-fluoro-1H-imidazo[4,5-b]pyridin-2-yl)methyl)-1,2,3,4-tetrahydroisoquinoline]
11 | > 2000 | 185 |  | 57 nM |  | COc1ccc(-c2cnc3ccc(NCc4nc5nc(F)ccc5[nH]4)cn23)c(Cl)c1 [Compound 2173, 3-(2-chloro-4-methoxyphenyl)—N-((5-fluoro-1H-imidazo[4,5-b]pyridin-2-yl)methyl)imidazo[1,2-a]pyridin-6-amine]
12 |  | 41.7 | 681 | 72 nM and < 40 nM | 638 | COc1ccc(-c2cnc(N)c3nc(Cc4nc5nc(Cl)ccc5[nH]4)cn23)c(Cl)c1 [Compound 2175, 2-({5-chloro-1H-imidazo[4,5-b]pyridin-2-yl}methyl)-5-(2-chloro-4-methoxyphenyl)imidazo[1,2-a]pyrazin-8-amine]
13 | 92.5 | < 40 | 409 | < 40 nM |  | CCn1cc(-c2ccc(OC)cc2Cl)c2c1CCN(Cc1nc3nc(Cl)ccc3[nH]1)C2 [Compound 2177, 5-chlor0-2-((3-(2-chloro-4-methoxyphenyl)-1-ethyl-6,7-dihydro-1H-pyrrolo[3,2-c]pyridin-5(4H)-yl)methyl)-1H-imidazo[4,5-b]pyridine]
14 | 5660 | 881 |  | 116 nM |  | COc1ccc(-n2ccc(=O)c3cc(F)c(Cc4nc5nc(Cl)ccc5[nH]4)cc32)c(Cl)c1 [Compound 2178, 7-((5-chloro-1H-imidazo[4,5-b]pyridin-2-yl)methyl)-1-(2-chloro-4-methoxyphenyl)-6-fluoroquinolin-4(1H)-one]
15 | 183 | 76 |  | < 40 nM |  | COc1ccc(-c2ccc(N)c3nc(Cc4nc5cc(Cl)ccc5[nH]4)cn23)c(Cl)c1 [Compound 2179, 2-[(6-chloro-1H-1,3-benzodiazol-2-yl)methyl]-5-(2-chloro-4-methoxyphenyl)imidazo[1,2-a]pyridin-8-amine]
16 | > 2000 | 113 |  | 117 nM |  | COc1ccc(-c2nn(C)c3c2CN(Cc2nc4nc(Cl)ccc4[nH]2)CC3)c(Cl)c1 [Compound 2187, 5-((5-chloro-1H-imidazo[4,5-b]pyridin-2-yl)methyl)-3-(2-chloro-4-methoxyphenyl)-1-methyl-4,5,6,7-tetrahydro-1H-pyrazolo[4,3-c]pyridine]
17 | 808 | 443 |  | < 40 nM |  | COc1ccc(-c2c3c(nn2C)CCN(Cc2nc4nc(Cl)ccc4[nH]2)C3)c(Cl)c1 [Compound 2188, 5-((5-chloro-1H-imidazo[4,5-b]pyridin-2-yl)methyl)-3-(2-chloro-4-methoxyphenyl)-2-methyl-4,5,6,7-tetrahydr0-2H-pyrazolo[4,3-c]pyridine]
18 | 174 | 91.7 |  | < 40 nM |  | Clc1ccc(Cn2cnc(Cc3nc4nc(Cl)ccc4[nH]3)c2)c(Cl)c1 [Compound 2190, 4-({5-chloro-1H-imidazo[4,5-b]pyridin-2-yl}methyl)-1-[(2,4-dichlorophenyl)methyl]-1H-imidazole]
19 | 257 | 232 |  | < 40 nM |  | CC(=O)Nc1nc(Cc2ccc(Cl)cc2Cl)cn1Cc1nc2ccc(Cl)cc2[nH]1 [Compound 2193, N-{1-[(6-chloro-1H-1,3-benzodiazol-2-yl)methyl]-4-[(2,4-dichlorophenyl)methyl]-1H-imidazol-2-yl}acetamide]
20 | > 2000 | > 1000 |  | > 10000 nM |  | Clc1ccc(Cc2cn(Cc3nc4ccc(Cl)cc4[nH]3)c(Br)n2)c(Cl)c1 [Compound 2194, 2-({2-bromo-4-[(2,4-dichlorophenyl)methyl]-1H-imidazol-1-yl}methyl)-6-chloro-1H-1,3-benzodiazole]
21 | > 2000 | > 1000 |  | 1280 nM |  | OCCNc1nc(Cc2ccc(Cl)cc2Cl)cn1Cc1nc2ccc(Cl)cc2[nH]1 [Compound 2196, 2-({1-[(6-chloro-1H-1,3-benzodiazol-2-yl)methyl]-4-[(2,4-dichlorophenyl)methyl]-1H-imidazol-2-yl}amino)ethan-1-ol]
